Key:
LYCHOS (GPR155) = molecular target: T1, LYCHOS (GPR155) (Homo sapiens, UniProt Q7Z3F1); test: [3H]-cholesterol saturation binding, scintillation counting
T1 sequence (Q7Z3F1 1-870): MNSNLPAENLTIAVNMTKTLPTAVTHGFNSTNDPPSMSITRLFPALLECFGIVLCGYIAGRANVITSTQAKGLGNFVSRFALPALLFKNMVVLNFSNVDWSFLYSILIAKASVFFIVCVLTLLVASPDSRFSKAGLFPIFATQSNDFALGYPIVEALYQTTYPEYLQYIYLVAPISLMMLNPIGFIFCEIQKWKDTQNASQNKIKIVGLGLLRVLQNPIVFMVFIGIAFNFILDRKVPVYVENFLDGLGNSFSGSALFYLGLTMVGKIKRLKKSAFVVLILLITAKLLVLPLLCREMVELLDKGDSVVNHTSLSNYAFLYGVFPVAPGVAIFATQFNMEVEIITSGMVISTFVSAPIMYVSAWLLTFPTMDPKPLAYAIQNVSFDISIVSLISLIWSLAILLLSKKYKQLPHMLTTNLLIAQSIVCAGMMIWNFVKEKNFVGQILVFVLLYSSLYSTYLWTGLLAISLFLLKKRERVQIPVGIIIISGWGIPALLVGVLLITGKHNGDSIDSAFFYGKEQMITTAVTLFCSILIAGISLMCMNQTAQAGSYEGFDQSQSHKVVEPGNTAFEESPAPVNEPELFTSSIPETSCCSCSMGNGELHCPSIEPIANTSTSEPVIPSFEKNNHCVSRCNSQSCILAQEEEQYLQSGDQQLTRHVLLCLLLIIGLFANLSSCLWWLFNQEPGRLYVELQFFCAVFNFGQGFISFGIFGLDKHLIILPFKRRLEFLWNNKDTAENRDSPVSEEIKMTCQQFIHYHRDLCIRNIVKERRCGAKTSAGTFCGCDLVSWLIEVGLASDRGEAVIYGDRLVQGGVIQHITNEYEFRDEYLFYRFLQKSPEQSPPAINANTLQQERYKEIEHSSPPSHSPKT

LYCHOS-GATOR1 complex = LYCHOS-GATOR1 complex (Homo sapiens, UniProt Q7Z3F1); test: FLAG co-immunoprecipitation of GATOR1 with LYCHOS from cholesterol-refed cells; assay type: cell-based
Sequence of LYCHOS-GATOR1 complex (O75140 whole entry partner, one chain of several): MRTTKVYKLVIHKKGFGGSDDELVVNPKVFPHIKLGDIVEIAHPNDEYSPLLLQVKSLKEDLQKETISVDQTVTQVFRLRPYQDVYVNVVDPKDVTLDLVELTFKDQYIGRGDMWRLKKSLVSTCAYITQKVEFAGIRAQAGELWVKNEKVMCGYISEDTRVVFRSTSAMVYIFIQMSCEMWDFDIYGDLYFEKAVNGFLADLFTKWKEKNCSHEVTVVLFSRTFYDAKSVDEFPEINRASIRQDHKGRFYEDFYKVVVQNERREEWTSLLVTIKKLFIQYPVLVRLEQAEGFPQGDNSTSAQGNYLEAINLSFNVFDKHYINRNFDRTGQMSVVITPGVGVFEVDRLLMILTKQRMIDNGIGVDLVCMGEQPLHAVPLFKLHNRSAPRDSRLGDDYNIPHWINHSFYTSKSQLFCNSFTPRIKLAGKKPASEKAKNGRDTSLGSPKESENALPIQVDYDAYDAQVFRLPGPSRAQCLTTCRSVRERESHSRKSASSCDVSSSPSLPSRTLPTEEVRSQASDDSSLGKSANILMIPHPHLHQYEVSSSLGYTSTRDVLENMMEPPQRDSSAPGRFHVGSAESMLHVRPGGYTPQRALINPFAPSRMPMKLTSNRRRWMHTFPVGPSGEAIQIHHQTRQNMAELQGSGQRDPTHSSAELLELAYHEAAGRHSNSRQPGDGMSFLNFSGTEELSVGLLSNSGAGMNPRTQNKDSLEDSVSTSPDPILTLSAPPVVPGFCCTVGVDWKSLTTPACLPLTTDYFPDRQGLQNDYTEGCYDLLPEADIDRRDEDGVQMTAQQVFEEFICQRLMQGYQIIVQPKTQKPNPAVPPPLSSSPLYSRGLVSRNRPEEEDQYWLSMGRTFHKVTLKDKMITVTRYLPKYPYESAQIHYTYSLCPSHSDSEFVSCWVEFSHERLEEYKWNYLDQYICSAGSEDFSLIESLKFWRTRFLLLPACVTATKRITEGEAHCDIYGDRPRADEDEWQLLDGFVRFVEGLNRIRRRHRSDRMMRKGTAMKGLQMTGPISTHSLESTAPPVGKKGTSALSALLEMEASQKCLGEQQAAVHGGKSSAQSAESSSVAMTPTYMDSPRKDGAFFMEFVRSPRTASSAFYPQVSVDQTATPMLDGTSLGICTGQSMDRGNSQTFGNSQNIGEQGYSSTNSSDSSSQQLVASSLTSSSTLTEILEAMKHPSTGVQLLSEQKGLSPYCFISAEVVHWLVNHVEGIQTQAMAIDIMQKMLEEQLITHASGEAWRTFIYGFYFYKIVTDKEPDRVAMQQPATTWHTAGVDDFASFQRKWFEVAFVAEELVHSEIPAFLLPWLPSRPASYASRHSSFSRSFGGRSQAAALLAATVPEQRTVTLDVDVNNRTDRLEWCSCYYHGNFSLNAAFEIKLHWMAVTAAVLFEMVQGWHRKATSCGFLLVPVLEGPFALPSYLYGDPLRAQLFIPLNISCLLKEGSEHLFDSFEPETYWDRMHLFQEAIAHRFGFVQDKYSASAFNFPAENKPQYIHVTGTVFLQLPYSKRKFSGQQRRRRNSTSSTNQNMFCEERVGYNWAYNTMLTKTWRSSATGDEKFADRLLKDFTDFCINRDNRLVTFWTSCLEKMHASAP
Sequence of LYCHOS-GATOR1 complex (Q8WTW4 whole entry partner, one chain of several): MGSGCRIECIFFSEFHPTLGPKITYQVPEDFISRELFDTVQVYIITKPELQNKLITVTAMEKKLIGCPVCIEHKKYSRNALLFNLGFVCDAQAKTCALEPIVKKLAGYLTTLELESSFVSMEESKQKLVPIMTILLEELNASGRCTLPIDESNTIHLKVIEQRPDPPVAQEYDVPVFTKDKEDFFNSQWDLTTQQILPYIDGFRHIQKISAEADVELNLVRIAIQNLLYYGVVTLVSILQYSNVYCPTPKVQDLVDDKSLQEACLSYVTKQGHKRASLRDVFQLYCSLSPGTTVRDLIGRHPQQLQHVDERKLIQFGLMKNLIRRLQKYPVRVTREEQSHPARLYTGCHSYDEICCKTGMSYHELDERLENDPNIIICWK
Sequence of LYCHOS-GATOR1 complex (Q12980 whole entry partner, one chain of several): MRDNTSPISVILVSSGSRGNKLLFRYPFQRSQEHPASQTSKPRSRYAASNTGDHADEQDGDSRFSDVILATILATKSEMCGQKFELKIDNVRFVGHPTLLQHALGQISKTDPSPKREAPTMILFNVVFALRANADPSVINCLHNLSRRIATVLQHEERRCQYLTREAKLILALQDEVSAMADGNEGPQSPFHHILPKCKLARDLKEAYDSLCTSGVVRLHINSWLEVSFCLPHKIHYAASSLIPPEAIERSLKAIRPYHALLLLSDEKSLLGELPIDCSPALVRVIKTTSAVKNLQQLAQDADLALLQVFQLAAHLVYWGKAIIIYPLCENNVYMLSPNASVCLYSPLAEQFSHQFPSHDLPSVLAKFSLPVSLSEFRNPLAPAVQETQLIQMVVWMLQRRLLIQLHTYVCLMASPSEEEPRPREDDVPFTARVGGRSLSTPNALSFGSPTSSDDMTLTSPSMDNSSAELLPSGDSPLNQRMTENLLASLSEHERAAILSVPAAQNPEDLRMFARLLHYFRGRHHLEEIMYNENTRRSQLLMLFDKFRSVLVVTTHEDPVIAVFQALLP

CC(C)CCC[C@@H](C)[C@H]1CC[C@H]2[C@@H]3CC=C4C[C@@H](O)CC[C@]4(C)[C@H]3CC[C@]12C [cholesterol]
Kd (LYCHOS (GPR155)): 0.1 to 0.2 µM | EC50 (LYCHOS-GATOR1 complex): 31.5 µM

Reference: PMC10023259 (Science (New York, N.Y.), 2022)
